According to patent publication US7612073B2, “Methods of administering tetrahydrobiopterin, associated compositions, and methods of measuring” (Biomarin Pharmaceutical Inc., priority 2007, dated 2009):
“Also recorded” adds a separate entry of the source. Values belong to the compound of their own block, whether it stands above or below them.

Tests used:
physchem [1] = format: physicochemical
Excerpt: Although there is ample literature describing increased bioavailability in fed conditions, this food effect is typically seen with lipophilic (i.e., lipid soluble) water-insoluble drugs and not usually with high water soluble active substance such as BH4. The usual explanation for increases in bioavailability under fed conditions for lipophilic compounds is that high fat meals help solubilize the drug since “like dissolves like” and this makes it available for absorption. Another possible explanation is that high fat meals stimulate the secretion of bile acids which are natural bio-surfactants that help solubilize and emulsify the fats we eat to aid their digestion. These bile acids are also thought to solubilize water-insoluble compounds thereby making them available for absorption. […] Therefore the enhancement of its bioavailability by high fat, high-energy meals is not consistent with such known mechanism.

physchem [2] = format: physicochemical; conditions: for Estimated t1/2 Based on t1/2 Obtained at pH 3 (Min) / half-life: buffer
Protocol: However, administration as a solid or semi-solid dosage form and/or with a high-fat meal may maximize bioavailability by increasing the residence time of BH4 in the acidic milieu of the stomach and upper gastrointestinal tract (GIT) where BH4 is chemically stable. […] At pH 3.1, which is within realm of the typical pH of the stomach in normal volunteers, the stability of BH4 at a concentration of 1 mg/mL is over 3 hours. The chemical stability of BH4 may further increase when the pH of the stomach drops below pH 3.1. Therefore prolonged stomach residence time provides intact drug to the stomach wall for absorption, whereas rapid emptying into the intestine degrades BH4 and is thus not available to be absorbed.
In general, the objective of this study was to evaluate the stability of BH4 in buffer solutions ranging in pH from pH 1 to 7 (See Table 15) and in the presence and absence of antioxidants and with or without inert gas in the reaction solutions (See Table 16).
The stability of BH4 is expected to be temperature-dependent. Therefore, the compound stability was evaluated at 2-8° C., 25° C., 30° C. and 37° C. to support the determination of predictive long-term shelf lives for the compound at different temperatures. Determination of the stability of the compound at the physiologic temperature of 37° C. provides data to support the estimation of the stability lifetime of a formulated oral dosage form in the absorptive regions of the GI tract.
Based on this approximation, pH 1.2 to pH 3 solutions were sampled weekly initially and sampling time corrections were made if necessary after the first 2 data points were collected.
Studies were conducted in pH 1-7 buffer solutions and at 5° C., 25° C., 30° C. and 37° C.

[3] = pharmacokinetics of sapropterin after a single oral administration in cynomolgus monkeys; format: in vivo, female cynomolgus monkeys; conditions: monkey, 10 mg/kg oral
Protocol: A single dose of sapropterin (10 mg/kg) was administered orally to female cynomolgus monkeys (3/group) under fasting conditions.

[4] = parameters: species or system rats and monkeys; conditions: rat, monkey, in vivo
Excerpt: Such variability in absorption of BH4 was also shown in a study described herein on the effect of food on the bioavailability of BH4 in healthy humans.

[5] = relative bioavailability of dissolved vs intact tablets and effect of food in healthy subjects; format: in vivo, human
Excerpt: The primary objectives of the study were: (1) to evaluate the relative bioavailability of tetrahydrobiopterin (BH4, sapropterin dihydrochloride) when administered after dissolution of tablet(s) in water or administered as intact tablet(s); (2) to compare the effect of food on the bioavailability of BH4 in healthy subjects. The secondary objective of the study was to assess the safety and tolerability of single oral doses of BH4 in healthy subjects.
This study was an open-label, randomized, three-treatment, six-sequence, three-period crossover study in which 30 subjects were to complete 3 single-dose dosing periods and were randomized to one of six sequence groups (Groups 1, 2, 3, 4, 5, and 6): […]
where all dosing groups received BH4 10 mg/kg orally as follows: a: administered after dissolution of tablet(s) in water given in fasting under fasting conditions b: administered as intact tablet(s) given in fasting under fasting conditions c: administered as intact tablet(s) given 30 minutes after beginning to ingest a high-calorie, high-fat meal in fed conditions Each subject received a single dose of 10 mg/kg of BH4 during each treatment period. A washout period of at least seven days separated each dose administration. A post-study assessment was performed 5-7 days after discharge of the third treatment period. Blood samples for Pharmacokinetic (PK) analysis were drawn at scheduled collection times during each study period: within 30 minutes prior to dose, and 0.5, 1.0, 1.5, 2.0, 2.5, 3.0, 3.5, 4.0, 5.0, 6.0, 8.0, 10.0, 12.0, 18.0, and 24.0 hours post-dose.
Blood (plasma) pharmacokinetic (PK) characteristics were assessed after each dose of study medication. All subjects remained seated in an upright position for 4 hours post-dose. The blood samples were drawn within 30 minutes prior to dose and at 0.5, 1.0, 1.5, 2.0, 2.5, 3.0, 3.5, 4.0, 5.0, 6.0, 8.0, 10.0, 12.0, 18.0, and 24.0 hours post dose. Samples were collected in appropriately labeled 6 mL K2-EDTA purple top Vacutainer® tubes. Blood samples were centrifuged at approximately 3000 rpm at 4° C. for 10 minutes. From the resulting plasma, exactly 1 mL was removed from each sample using a pipet, and placed into an aliquot tube containing 0.1% w/v dithioerythritol. The sample was capped and vortexed for approximately 10 seconds using a VWR Mini Vortexer at speed 6. After completion of these steps, the sample was flash frozen in an isopropyl/dry ice bath and placed in a −70° C. freezer pending analysis.
Pharmacokinetic (PK) analysis of plasma BH4 concentration-time data was performed using non-compartmental methods to obtain estimates of the following PK parameters: • Peak plasma concentration (Cmax) and time to peak concentration (Tmax), obtained directly from the data without interpolation; • λz, the apparent terminal elimination rate constant, determined by log-linear regression of the terminal plasma concentrations; • Area under the plasma concentration-time curve from time zero to the time of last measurable concentration [AUC(0-t)], calculated by the linear trapezoidal method; • The apparent elimination half-life (t½), calculated as 0.693/λz; • Area under the plasma concentration-time curve from time 0 to infinity [AUC(inf)] where AUC(inf)=AUC(0-t)+Ct/λz and Ct is the last measurable concentration. Estimation of Absorption Rate […]
Comparison of the pharmacokinetic parameters Cmax, AUC(0-t), and AUC(inf) for BH4 was conducted using an analysis of variance (ANOVA) model with sequence, subject within sequence, treatment, and period as the classification variables using the natural logarithms of the parameters as the dependent variables. The comparisons of interest were between the dissolved and intact tablet in the fasted state and the intact tablet in the fed and fasted states.

[6] = safety and tolerability of single oral doses of BH4 in healthy subjects; format: in vivo, human
Protocol: Safety was evaluated for all subjects who take at least one dose of BH4.
Safety was evaluated by recording the incidence of adverse events, changes in 12-lead ECG parameters, vital signs and physical examination results, and changes in baseline in laboratory test values.
In this study, an adverse event (AE) was defined as any untoward medical occurrence in a subject or clinical investigation subject administered BH4, at any dose, whether or not it has a causal relationship with the event. An AE can therefore be any unfavorable and unintended sign (including an abnormal laboratory finding), symptom, or disease temporally associated with the use of BH4, whether or not related to BH4. This definition included intercurrent illnesses or injuries and exacerbation (increase in frequency, severity or specificity) of pre-existing conditions.
A serious adverse event (SAE) was defined as any AE that has at least one of the following outcomes: […]

[7] = rat, radioactive markers in urine
[8] = water adsorption (hygroscopicity) of crystal forms; format: physicochemical; conditions: dihydrochloride

solubility (physchem [1]): > 1000 mg/mL
dependence of rate of degradation of BH4 (physchem [2]): concentration-dependent
effect of sparging on stability of BH4 (physchem [2]): substantially enhanced the stability
stability of BH4 at pH 3.1 (physchem [2]; 1 mg/mL, pH 3.1): over 3 hours
Estimated t1/2 Based on t1/2 Obtained at pH 3 (Min) (physchem [2]; pH 2): 177690.0 (123.4 days) Min
Estimated t1/2 Based on t1/2 Obtained at pH 3 (Min) (physchem [2]; pH 3): 17769.0 (12.34 days) Min
half-life (physchem [2]; pH 3): 12.3 days
half-life (physchem [2]; pH 3.1): 12.3 days
Estimated t1/2 Based on t1/2 Obtained at pH 3 (Min) (physchem [2]; pH 4): 1776.9 (1.23 days) Min
Estimated t1/2 Based on t1/2 Obtained at pH 3 (Min) (physchem [2]; pH 5): 177.7 (0.12 days) Min
Estimated t1/2 Based on t1/2 Obtained at pH 3 (Min) (physchem [2]; pH 6): 17.7 (0.01 days) Min
half-life (physchem [2]; pH 6.8): ~0.0104 days
Estimated t1/2 Based on t1/2 Obtained at pH 3 (Min) (physchem [2]; pH 7): 1.8 Min
ratio of reduced biopterin to total biopterins during the test period [3]: nearly constant
BH4 absorbed in the gut [4]: 8-11%
median and range for Tmax, dissolved vs intact tablets ([5]; 10 mg/kg oral, fasted): essentially the same
upper limits of 90% confidence intervals of intact-to-dissolved ratios ([5]; 10 mg/kg oral, fasted): greater than 125%
increase in the extent of absorption, intact tablet compared to dissolved tablet ([5]; 10 mg/kg oral, healthy subjects): ~20%
average increase in Cmax and AUC, intact tablet relative to dissolved tablets ([5]; fasted conditions): 20%
increase in Cmax and AUC after a high fat/high calorie meal ([5]; intact tablet): approximately 30%
median and range for Tmax, fed vs fasted conditions ([5]; intact tablet 10 mg/kg): essentially the same
upper limits of 90% confidence intervals of fed-to-fasted ratios ([5]; intact tablet 10 mg/kg): greater than 125%
increase in Cmax and AUC after a high fat/high calorie meal ([5]; tablet dissolved in water): ~80%
rate of GI absorption [7]: 8.8%
SMILES: C[C@H](O)[C@H](O)[C@H]1CNc2nc(N)[nH]c(=O)c2N1 [BH4, 6R-(L-erythro)-5,6,7,8-tetrahydrobiopterin]
study exit assessments, ECG and physical examination evaluations ([6]; human, in vivo): no clinically significant findings
adverse events assessed as mild ([6]; of 9 AEs): 8 AEs
adverse events assessed as moderate in severity ([6]; of 9 AEs): 1 AEs
events judged possibly related to the study drug ([6]; of 9 AEs): 4 events
events judged unrelated to the study drug ([6]; of 9 AEs): five
subjects reporting adverse events ([6]; single 10 mg/kg oral doses): 5 subjects
total adverse events reported ([6]; single 10 mg/kg oral doses): 9 adverse events
serious adverse events (SAEs) ([6]; single 10 mg/kg oral doses, healthy subjects, 10 mg/kg): no serious adverse events; also recorded: no AEs considered serious

water content adsorbed (hygroscopicity) [8]: about 2.0 percent by weight
SMILES: C[C@H](O)[C@H](O)[C@H]1CNc2nc(N)[nH]c(=O)c2N1.Cl.Cl [Polymorph K, (6R)-L-erythro-tetrahydrobiopterin dihydrochloride]

water content adsorbed (hygroscopicity) [8]: about 3 percent by weight
SMILES: C[C@H](O)[C@H](O)[C@H]1CNc2nc(N)[nH]c(=O)c2N1.Cl.Cl [Polymorph F, (6R)-L-erythro-tetrahydrobiopterin dihydrochloride]

water content adsorbed (hygroscopicity) [8]: about 3 percent by weight
SMILES: C[C@H](O)[C@H](O)[C@H]1CNc2nc(N)[nH]c(=O)c2N1.Cl.Cl [Polymorph A, (6R)-L-erythro-tetrahydrobiopterin dihydrochloride]
